Experimental data published in patent US20080193963A1, “Method of Determining the State of Activation of a Protein” (NAMBITION GMBH, priority 2005, published 2008).

Biological target: T1, NhaA (Escherichia coli, UniProt P13738)
T1 construct: Pulling NhaA (402aa) from either the N- or C-terminus; His6 (C); made in house; host or cells: E. coli BL21(DE3)
Assay: Single-molecule force spectroscopy (SMFS) unfolding of NhaA in presence of inhibitor
Format: binding
Protocol: We used a NanoWizard AFM (JPK Instruments, Germany) with an 850 nm laser detection system. As AP absorbs light between 290 and 350 nm, we avoided double-photon excitation and photobleaching by the laser. The spring constants of the 200 μm long (di-Veeco, USA) and 80μ long (Olympus, Japan) Si3N4 AFM cantilevers used were determined using the equipartion theorem (Butt H. J., 1995; Florin, 1995). NhaA was reconstituted into E. coli polar lipid bilayers forming two-dimensional crystals (Williams et al., 1999). Membranes were immobilized on freshly cleaved mica in 200 mM KCl, 10% glycerol, 25 mM K^+-acetate, pH 4.0 for 20 min. Experiments were performed in buffer solutions containing 190 mM KCl and 10 mM NaCl at pH 7.7 (20 mM tris-HCl) and pH 4.0 (20 mM citric acid). AP concentrations of prepared solutions were determined by their optical densities at λ=305.5 using the excitation coefficient eAP=7500 M^−1·cm^−1 (Additional Ref. 151). Solutions containing AP were kept away from light and experiments were performed in a dark room. Buffer solutions were made in fresh nano-pure water (18.2MΩ·cm^−1), using p. a. purity grade reagents from Sigma/Merck. AFM topographs of immobilized membrane patches resolved the crystalline NhaA arrangements, which were selected to unfold individual proteins (Kedrov et al., 2004).
Only C-terminal unfolding events were studied as they are dominant at pH 7.7 (Additional Ref. 152). To obtain the unfolded polpeptide chain length each force peak was fifted using the worm-like-chain (Bustamante et al., 1994) model as described ([…]). Individual unfolding barriers were located by subtracting the unfolded polypeptide length fron the C-terminus. For each force peak (unfolding barrier) the probability and average forces were calculated. At every studied condition up to 150 single-molecule unfolding events were analyzed using Igor Pro (Wavemetrics Inc., USA) and home-written macros. To probe the statistical difference of data sets the data were tested against one-way ANOVA analysis.

T1 sequence (P13738 whole entry): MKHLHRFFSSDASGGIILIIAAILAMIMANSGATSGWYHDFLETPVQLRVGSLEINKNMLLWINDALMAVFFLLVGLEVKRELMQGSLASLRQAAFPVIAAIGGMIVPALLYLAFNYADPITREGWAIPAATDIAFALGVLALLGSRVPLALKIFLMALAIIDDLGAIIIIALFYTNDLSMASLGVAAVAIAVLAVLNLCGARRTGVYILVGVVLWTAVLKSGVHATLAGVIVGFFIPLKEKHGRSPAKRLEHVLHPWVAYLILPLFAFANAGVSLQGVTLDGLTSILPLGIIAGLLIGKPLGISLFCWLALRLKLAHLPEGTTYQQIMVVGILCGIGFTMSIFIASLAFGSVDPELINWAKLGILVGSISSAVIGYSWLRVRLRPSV

Which results are given for `NC1=Nc2cccc3cccc(c23)N1` [AP, 2-aminoperimidine]?
"stable" fraction in histograms of force at helix IX (AP binding) with increasing Na+ concentration (40 μM AP, 10 or 200 μM NaCl as printed): drastic decrease; average strength of the interaction detected by the 125aa force peak (helix XI as printed) (40 μM AP, NhaA activated at pH 7.7, mean ±SD, n=95, without AP 75±29 pN (n=61), p<0.0001): 105±41 pN; enhanced interaction strength of a fraction of NhaA molecules (125aa peak) after exposure to AP (pH 7.7, NhaA.AP complex population, free NhaA ≈75 pN): ≈ 140 pN; NhaA molecules that established enhanced stability at α-helix IX (pH-locked conformation, pH 4.0, incubated with 40 μM AP): ≈ 15%
